From the supplement of paper PMC8671470
Counter-ions that a name gives are not always drawn.

What was measured:
Conditions in all cases: 72 h
HEL = test system: HEL
In short: (§1)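 For the IC50, dose–response curves were fitted with a log-logistic model. The data came from fifteen myeloid leukaemia cell lines grown in RPMI 1640 at densities in the linear growth range and incubated in 384-well plates for 72 h at 37 °C under 5% CO2. Doses were five tenfold steps from 1 to 10,000 nM in duplicate, and luminescent ATP viability was normalised to vehicle and to a positive control at 10 µM before four-parameter fitting.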

LAMA-84 = test system: LAMA-84
In short: as §1

MV4-11 = test system: MV4-11
In short: as §1

K-562 = test system: K-562
In short: as §1

SHI-1 = test system: SHI-1
In short: as §1

BV-173 = test system: BV-173
In short: as §1

THP-1 = test system: THP-1
In short: as §1

Mono-Mac-6 = test system: Mono-Mac-6
In short: as §1

MOLM-13 = test system: MOLM-13
In short: as §1

KU-812 = test system: KU-812
In short: as §1

HL-60 = experiment: area under dose-response curve (viability, 1 nM-10 uM) (fraction (0-1)); higher = more sensitive
In short: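 HL-60 cells in RPMI 1640 with 10% FBS were rescreened against the full library on 384-well plates at five tenfold concentrations, 1–10,000 nM, in duplicate. Each screen was run with DMSO or 100 nM of one of three metabolic inhibitors, for 72 h at 37 °C, 5% CO2. Viability was read by CellTiter-Glo and normalised to DMSO and 10 μM proteasome-inhibitor wells. Where given, area under the curve came from four-parameter log-logistic fits (drc, PharmacoGx).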

[1] = co-treatment: GSK2194069 100 nM
[2] = co-treatment: pictilisib 100 nM

SMILES | IC50 (cell viability) (HEL) [µM] | IC50 (cell viability) (LAMA-84) [µM] | IC50 (cell viability) (MV4-11) [µM] | IC50 (cell viability) (K-562) [µM] | IC50 (cell viability) (SHI-1) [µM] | IC50 (cell viability) (BV-173) [µM] | IC50 (cell viability) (THP-1) [µM] | IC50 (cell viability) (Mono-Mac-6) [µM] | IC50 (cell viability) (MOLM-13) [µM] | IC50 (cell viability) (KU-812) [µM] | area under dose-response curve (HL-60; co-treatment: AZD3965 100 nM) | area under dose-response curve (HL-60; co-treatment: DMSO vehicle) | area under dose-response curve (HL-60; [1]) | area under dose-response curve (HL-60; [2])
O=C([O-])CC(O)(C(=O)[O-])C(O)C(=O)[O-].[K+].[K+].[K+] (stereo unspecified) [Hydroxycitrate] | > 10 | > 10 | > 10 | > 10 | > 10 | > 10 | > 10 | > 10 | > 10 | > 10 | < 0.0301 | < 0.0301 | < 0.0301 | < 0.0301
Cc1c(Cl)cccc1S(=O)(=O)Nc1nc(CC(=O)N2CCN(C)CC2)cs1 [BVT-2733] | > 10 | > 10 | > 10 | > 10 | > 10 | > 10 | > 10 | > 10 | > 10 | > 10 | < 0.0301 | < 0.0301 | < 0.0301 | < 0.0301
COc1ccc2c(NC(=O)Nc3cccc(C(F)(F)F)n3)ccnc2c1 | > 10 | > 10 | > 10 | > 10 | > 10 | > 10 | > 10 | > 10 | 9.04 | > 10 | < 0.0301 | < 0.0301 | < 0.0301 | < 0.0301
C[C@H]1c2cccc(O)c2C(=O)C2C(=O)[C@]3(O)C(=O)C(C(N)=O)C(=O)[C@@H](N(C)C)[C@@H]3[C@@H](O)[C@@H]21 (stereo partly specified) [Doxycycline] | > 10 | > 10 | > 10 | 9.29 | > 10 | > 10 | > 10 | > 10 | > 10 | > 10 | < 0.0301 | < 0.0301 | < 0.0301 | < 0.0301
CN(CCCOc1ccc(Cc2ccccc2)cc1)CCC(=O)O | > 10 | > 10 | > 10 | > 10 | > 10 | > 10 | > 10 | > 10 | > 10 | > 10 | < 0.0301 | < 0.0301 | < 0.0301 | < 0.0301
CCc1c(C(=O)C(N)=O)c2c(OCC(=O)O)cccc2n1Cc1ccccc1 [Varespladib] | > 10 | > 10 | > 10 | > 10 | > 10 | > 10 | > 10 | > 10 | > 10 | > 10 | – | – | – | –
CCCCCCCC/C=C\CCCCCCCC(=O)Nc1ccccc1 [Octadec-9-Enoic Acid Phenylamide] | > 10 | > 10 | > 10 | > 10 | > 10 | > 10 | > 10 | > 10 | > 10 | > 10 | < 0.0301 | < 0.0301 | < 0.0301 | < 0.0301
N#C/C(=C\c1ccc(O)cc1)C(=O)O [alpha-cyano-4-hydroxycinnamic acid] | > 10 | > 10 | > 10 | > 10 | > 10 | > 10 | > 10 | > 10 | > 10 | > 10 | < 0.0301 | < 0.0301 | < 0.0301 | < 0.0301
OC[C@H]1NC[C@H](O)[C@@H](O)[C@@H]1O [Duvoglustat] | > 10 | > 10 | > 10 | > 10 | > 10 | > 10 | > 10 | > 10 | > 10 | > 10 | < 0.0301 | < 0.0301 | < 0.0301 | < 0.0301
Cc1cccc(Nc2cc(Cl)nc(SCC(=O)O)n2)c1C [Pirinixic acid] | > 10 | > 10 | > 10 | > 10 | > 10 | > 10 | > 10 | > 10 | > 10 | > 10 | < 0.0301 | < 0.0301 | < 0.0301 | < 0.0301
O=C(NCCN1CCC(n2c(O)nc3ccccc32)CC1)c1cc2cc(F)ccc2[nH]1 [FIPI] | > 10 | > 10 | > 10 | 6.19 | > 10 | > 10 | > 10 | 8.61 | > 10 | > 10 | < 0.0301 | < 0.0301 | < 0.0301 | < 0.0301
Cc1ccc(-c2cc(C(F)(F)F)nn2-c2ccc(S(N)(=O)=O)cc2)cc1 [Celecoxib] | > 10 | > 10 | > 10 | > 10 | > 10 | > 10 | > 10 | > 10 | > 10 | > 10 | < 0.0301 | < 0.0301 | < 0.0301 | < 0.0301
CCOC(=O)c1sc(NC(=O)c2ccco2)c(SC#N)c1C [CBR-5884] | > 10 | > 10 | 7.25 | > 10 | > 10 | > 10 | > 10 | > 10 | > 10 | > 10 | < 0.0301 | < 0.0301 | < 0.0301 | < 0.0301
OC[C@H]1O[C@@H](n2cnc3c2N=CNC[C@H]3O)C[C@@H]1O [Pentostatin] | > 10 | > 10 | > 10 | > 10 | > 10 | > 10 | > 10 | > 10 | > 10 | > 10 | < 0.0301 | < 0.0301 | < 0.0301 | < 0.0301
CCN(CCO)CCCC(C)Nc1ccnc2cc(Cl)ccc12 (stereo unspecified) [Hydroxychloroquine sulfate] | > 10 | > 10 | > 10 | > 10 | > 10 | > 10 | > 10 | > 10 | > 10 | > 10 | < 0.0301 | < 0.0301 | < 0.0301 | < 0.0301
CCc1oc2ccccc2c1C(=O)c1cc(Br)c(O)c(Br)c1 [Benzbromarone] | > 10 | > 10 | > 10 | > 10 | > 10 | > 10 | > 10 | > 10 | > 10 | > 10 | < 0.0301 | < 0.0301 | < 0.0301 | < 0.0301
N#Cc1ccc(N(Cc2ccc(Br)cc2)n2cnnc2)cc1 [YM511] | > 10 | > 10 | > 10 | > 10 | > 10 | > 10 | > 10 | > 10 | > 10 | > 10 | – | – | – | –
O=c1cc(-c2ccccc2)oc2c1ccc1ccccc12 [Alpha-Naphtoflavone] | > 10 | > 10 | > 10 | > 10 | > 10 | > 10 | > 10 | > 10 | > 10 | > 10 | < 0.0301 | < 0.0301 | < 0.0301 | < 0.0301
CC[C@H](C)[C@H](N)C(=O)N1CCSC1 [P32/98] | > 10 | > 10 | > 10 | > 10 | > 10 | > 10 | > 10 | > 10 | > 10 | > 10 | < 0.0301 | < 0.0301 | < 0.0301 | < 0.0301
Cc1cc(C(=O)NNCc2ccccc2)no1 [Isocarboxazid] | > 10 | > 10 | > 10 | > 10 | > 10 | > 10 | > 10 | > 10 | > 10 | > 10 | < 0.0301 | < 0.0301 | < 0.0301 | < 0.0301
COC(=O)c1cc2c(C(F)(F)F)cc(-c3ccccc3)cc2n1O [NHI-2] | > 10 | > 10 | > 10 | > 10 | > 10 | > 10 | > 10 | > 10 | > 10 | > 10 | < 0.0301 | < 0.0301 | < 0.0301 | < 0.0301
CCCc1nc(C)c2c(=O)nc(-c3cc(S(=O)(=O)N4CCN(CC)CC4)ccc3OCC)[nH]n12 [Vardenafil] | > 10 | > 10 | > 10 | > 10 | > 10 | > 10 | > 10 | > 10 | > 10 | > 10 | – | – | – | –
